How the values were obtained:
Type in all cases: in vivo, Alfalfa (Medicago sativa L.)
alfalfa plants [1] = experiment: Example 3 efficacy test on alfalfa with or without Rhizobium inoculation: shoot weight, leaf area, root dry weight; conditions: Day 12 after foliar spray
Experimental: Five (5) seeds were sown in one pot. Alfalfa plants were randomly divided into 6 groups, in which Groups 1 to 3 were not inoculated with Rhizobium, and Groups 4 to 6 were inoculated with Rhizobium. Rhizobium inoculation was the same as described in Example 2. After inoculation, the pots were placed in a phytotron, which was operated at 25/23° C. day/night temperature and on a 16/8 h light/dark cycle. Two (2) weeks after sowing (V2 stage), alfalfa plants were applied with the reagents listed in Table 6 once at a rate of 10 mL/12 pots using a foliar spray treatment. The reagents were applied once in total during the test period. [table] Twelve (12) days after the application of reagents, 12 alfalfa plants from each group (N=12) were randomly selected for phenotype observation, and the shoot fresh weight of the collected samples was measured. Then, the collected samples were dried at 50° C. overnight, and the shoot dry weight was measured. Twelve (12) days after the application of reagents, 6 alfalfa plants from each group (N=6) were randomly selected. All the trifoliate leaves of the selected plants were collected and numbered in sequence from bottom to top. The leaf area of all the trifoliate leaves of each alfalfa plant was measured by a leaf analyzer ([…]2400, Regent Instruments Inc.). Twelve (12) days after the application of reagents, 4 alfalfa plants from each group (N=4) were randomly selected. The collected samples were dried at 50° C. overnight, and then the root dry weight was measured. Average and standard error (SE) of each group were calculated.

alfalfa plants [2] = experiment: Example 3 nitrogen content of alfalfa leaves; conditions: 12 days after application; Groups 4-6 Rhizobium inoculated; p<0.001
Experimental: (§1) Alfalfa (Medicago sativa L.) seeds were sown in 3.5-inch pots containing culture medium (peat soil:vermiculite=1:1). Five (5) seeds were sown in one pot. Alfalfa plants were randomly divided into 6 groups, in which Groups 1 to 3 were not inoculated with Rhizobium, and Groups 4 to 6 were inoculated with Rhizobium. Rhizobium inoculation was the same as described in Example 2. After inoculation, the pots were placed in a phytotron, which was operated at 25/23° C. day/night temperature and on a 16/8 h light/dark cycle. Two (2) weeks after sowing (V2 stage), alfalfa plants were applied with the reagents listed in Table 6 once at a rate of 10 mL/12 pots using a foliar spray treatment. The reagents were applied once in total during the test period. [table] Twelve (12) days after the application of reagents, 4 alfalfa plants from each group (N=4) were randomly selected. The first to fifth trifoliate leaves of the selected plants were collected, air-dried at 50° C. overnight and then ground into powder. […] Average and standard error (SE) of each group were calculated.

[3] = system: glutamate synthase (GOGAT); experiment: Example 3 activity of glutamate synthase (GOGAT) of alfalfa leaves; conditions: 12 days after application; Groups 2-3 without, Groups 4-6 with Rhizobium
Experimental: as §1, with “third” for “first to fifth”, “collected to determine GOGAT activity by the following method. […] The GOGAT activity is determined by NADH reduction through measuring fluorescence intensity” for “collected, air-dried”, “excitation/emission wavelengths of 340/445 nm.” for “50° C. overnight and then ground into powder.”

[4] = Groups 2-3 without, Groups 4-6 with Rhizobium
[5] = Groups 4-6 Rhizobium inoculated
[6] = Groups 4-6 Rhizobium inoculated, Group 1 no Rhizobium, no actives

NCCCC(=O)O [Group 4, γ-aminobutyric acid (GABA)]
Leaf Area, Sum of trifoliate leaves (alfalfa plants [1]; [4]): 6.27 cm^2/plant | Leaf Area, trifoliate leaf number 1 (alfalfa plants [1]; [4]): 0.90 cm^2/plant | Leaf Area, trifoliate leaf number 2 (alfalfa plants [1]; [4]): 1.03 cm^2/plant | Leaf Area, trifoliate leaf number 3 (alfalfa plants [1]; [4]): 1.01 cm^2/plant | Leaf Area, trifoliate leaf number 4 (alfalfa plants [1]; [4]): 0.85 cm^2/plant | Leaf Area, trifoliate leaf number 5 (alfalfa plants [1]; [4]): 0.87 cm^2/plant | Leaf Area, trifoliate leaf number 6 (alfalfa plants [1]; [4]): 0.93 cm^2/plant | Leaf Area, trifoliate leaf number 7 (alfalfa plants [1]; [4]): 0.52 cm^2/plant | Leaf Area, trifoliate leaf number 8 (alfalfa plants [1]; [4]): 0.17 cm^2/plant | Leaf Area, trifoliate leaf number 9 (alfalfa plants [1]; [4]): 0.00 cm^2/plant | increase of leaf area compared with Group 1 (alfalfa plants [1]; [4]): 64% | root dry weights compared with Group 1 (alfalfa plants [1]; [4]): higher | increase of trifoliate leaves compared with Group 1 (alfalfa plants [1]; [5]): 2 trifoliate leaves | plant height compared with Group 1 (words, FIG. 12) (alfalfa plants [1]; [5]): higher | increase of shoot dry weight compared with Group 1 (alfalfa plants [1]; [6]): 52.9% | increase of shoot fresh weight compared with Group 1 (alfalfa plants [1]; [6]): 66.5% | increase of nitrogen content in the leaves compared with Group 1 (alfalfa plants [2]): 115.8% | increase of GOGAT activity in the leaves compared with Group 1 [3]: 13.5%

— US12575568B2, “Composition for promoting the growth of legumes” (CH BIOTECH R&D CO., LTD., priority 2022, dated 2026)
